From patent US11365415B2, “Use of miR-223-3p as a cancer therapeutic and method for treating cancer using the same” (University of Florida Research Foundation, Inc., priority 2016, dated 2022)

How the values were obtained:
Format in all cases: cell-based
[1] = tested on: endogenous miR-223-3p in HL60 cells; test: qRT-PCR of endogenous miR-223-3p in HL60 cells after Ara-C; conditions: 50 μM Ara-C, different time points
Protocol: Quantitative real time PCR (qRT-PCR) measuring endogenous miR-223 If miR-223-3p is a physiologic regulator of PARP1 expression, then its expression should be repressed after DNA damage, when higher levels of PARP1 are required to repair this damage. Mir223-3p is most highly expressed in hematopoietic cells, such as the HL60 cell line. HL60 cells were treated with 50 μM cytarabine (Ara-C) for lhr, 4 hr, 8 hr, 12 hr and 24 hr. Western blot analysis was performed to examine PARP1 protein levels in these samples. For measuring levels of miR-223-3p, cells were collected at the above time points, RNA isolated using the Qiagen RNeasy kit. cDNA conversion was then performed using first-strand cDNA synthesis kit for miRNA from Origene (HP100042). qRT-PCR for miR-223 3p was performed on a 7900HT Fast Real-Time PCR system (ABI) according to Origene protocol and ACT values were calculated. […]
Quantitative Real Time PCR (qRT-PCR) Measuring Endogenous miR223-3p. […] For measuring levels of miR223-3p, cells were collected at the above time points, RNA isolated using the Qiagen RNeasy kit. cDNA conversion was then performed using first-strand cDNA synthesis kit for miRNA from Origene (HP100042). qRT-PCR for miR223 3p was performed on a 7900HT Fast Real-Time PCR system (ABI) according to Origene protocol and ΔCT values were calculated. […]

[2] = tested on: Human Mesothelioma cells (H-Meso 01A); test: Colony formation of BAP1 mutant human mesothelioma cells treated with olaparib; conditions: 3 olaparib, 10 days continuous
Protocol: These cells were treated with the PARP inhibitor, olaparib. Human Mesothelioma cells (H-Meso 01A) were cultured in RPMI media supplemented with 10% FBS and 1% Penicillin/Streptomycin. These cells were seeded in a 6-well plate at a density of 4000 cells/well and allowed to grow for 18 hours. Of the six wells, three wells were treated with […] (LC laboratories, Cat #0-9201) each and the other three wells were considered as controls. The cells were allowed to grow for 10 days. Olaparib stayed on the cells throughout the experiment. After 10 days of incubation, colonies were stained with 0.1% crystal violet in methanol and counted using Image J software. Olaparib killed at least 80-90% of the cells. The experiment was done three times, each in triplicates and the average from all three times was calculated (FIG. 24).

[3] = tested on: MDA-MB-436 (breast cancer) cells, deficient in BRCA1; test: Colony formation survival assay, MDA-MB-436; conditions: MDA-MB-436, 25 nm miR-223-3p mimic, colonies counted after 14 days
Protocol: (§1) Colony formation assays measures the ability of a single cell to not only survive, but also to proliferate. Thus, it is an indirect measurement of cancer stem cell activity, the ability of a single cell to give rise to a host of progeny. The BRCA1-deficient MDA-MB-436 breast cancer cells were cultured in DMEM supplemented with 10% FBS and 1% penicillin and streptomycin. BRRCA1-deficient UWB1.289 ovarian cancer cells were cultured and maintained in 50% MEBM medium with growth factors and 50% RPMI medium supplemented with 3% FBS and 1% penicillin and streptomycin. 25 nm of mirVana miR-223 3p mimic from Ambion life technologies (Cat #4464067) was used to deplete PARP1 protein in these cell lines. Mir223-3p was encapsulated into the lipid transfection complex, RNAiMAX. […] After 48 hours, the cells were trypsinized, counted and plated in 6 well plates at a density of 4000 cells per well, in triplicates. After 14 days of incubation, colonies were stained with 0.1% crystal violet in methanol and counted using Image J software. […]
(§2) Cell Culture, miRNA transfection and Survival Assay. […] After 48 hours, the cells were trypsinized, counted and plated in 6 well plates at a density of 4000 cells per well, in triplicates. After 14 days of incubation, colonies were stained with 0.1% crystal violet in methanol and counted using Image J software. […]

[4] = tested on: UWB1.289 (ovarian cancer) cells, deficient in BRCA1; test: Colony formation survival assay, UWB1.289; conditions: UWB1.289, 25 nm miR-223-3p mimic, colonies counted after 14 days
Protocol: as §1, §2

PARP1 = test: Western analysis of PARP1 after exposure to miR-223-3p mimic; conditions: for PARP1 protein expression (Western): breast and ovarian cell lines harboring BRCA1 mutant (MDA-MB-436, UWB1.289); for PARP1 repression/knockdown (Western): cell line not given, 25 nM mimic in FIG. 33
Protocol: Colony formation assays measures the ability of a single cell to not only survive, but also to proliferate. Thus, it is an indirect measurement of cancer stem cell activity, the ability of a single cell to give rise to a host of progeny. The BRCA1-deficient MDA-MB-436 breast cancer cells were cultured in DMEM supplemented with 10% FBS and 1% penicillin and streptomycin. BRRCA1-deficient UWB1.289 ovarian cancer cells were cultured and maintained in 50% MEBM medium with growth factors and 50% RPMI medium supplemented with 3% FBS and 1% penicillin and streptomycin. 25 nm of mirVana miR-223 3p mimic from Ambion life technologies (Cat #4464067) was used to deplete PARP1 protein in these cell lines. Mir223-3p was encapsulated into the lipid transfection complex, RNAiMAX. 25 nm of miR-223-3p was incubated in 500 μL Opti-MEM plus 6 μl of RNAiMAX for 20 mins at room temperature and then added to the cells for a final volume of 1 ml. After 48 hours, the cells were trypsinized, counted and plated in 6 well plates at a density of 4000 cells per well, in triplicates. After 14 days of incubation, colonies were stained with 0.1% crystal violet in methanol and counted using Image J software. PARP1 repression by miR-223-3p was shown by western blot. PARP1 antibody was purchased from Cell Signaling (46D11).
(§3) Cell Culture, miRNA transfection and Survival Assay. The BRCA1-deficient MDA-MB-436 breast cancer cells were cultured in DMEM supplemented with 10% FBS and 1% penicillin and streptomycin. BRRCA1-deficient UWB1.289 ovarian cancer cells were cultured and maintained in 50% MEBM medium with growth factors and 50% RPMI medium supplemented with 3% FBS and 1% penicillin and streptomycin. BAP1-mutant H2452 mesothelioma cells were cultured in RPMI 1640 medium supplemented with 10% fetal bovine serum and 1% penicillin and streptomycin. 25 nm of mirVana miR223-3p mimic from Ambion life technologies (Cat #4464067) was used to deplete PARP1 protein in these cell lines. Mir223-3p was encapsulated into the lipid transfection complex, RNAiMAX. 25 nm of mir223-3p was incubated in 500 µL Opti-MEM plus 6 ul of RNAiMAX for 20 mins at room temperature, and then added to the cells for a final volume of 1 ml. After 48 hours, the cells were trypsinized, counted and plated in 6 well plates at a density of 4000 cells per well, in triplicates. After 14 days of incubation, colonies were stained with 0.1% crystal violet in methanol and counted using Image J software. PARP1 repression by mir223-3p was shown by western blot. PARP1 antibody was purchased from Cell Signaling (46D11). FIG. 44 illustrates the depletion of other DNA repair components in addition to PARP1.

aNHEJ = test: Alternative non-homologous end joining (aNHEJ) assay in EJ2-GFP U2OS cells; conditions: prior exposure to miR-223-3p, I-SceI expression
Protocol: PARP1 is involved in the initial step in aNHEJ DNA double strand break repair. If PARP1 is repressed, then aNHEJ is decreased. The EJ2-GFP U2OS system was used to assess aNHEJ. This reporter system contains single, integrated copy of reporter with I-SceI target sites. These sites were cleaved upon transfection of an I-SceI expression vector. Cells were transfected with miR-223 3p mimic using RNAiMAX. 24 hours after transfection, the cells were transfected with I-SceI vector using polyethylenimine (PEI). After 72 hours, EJ2 cells were trypsinized, washed with PBS and GFP-positive cells were measured using FACSort (Becton-Dickinson, San Jose, Calif.). The GFP positive cells are proportional to the aNHEJ frequency.
Alternative Non-Homologous End Joining (aNHEJ) assay. PARP1 is the initial step in aNHEJ DNA double strand break repair. If PARP1 is repressed, then aNHEJ will be decreased. The EJ2-GFP U2OS system was used to assess aNHEJ. This reporter system contains single, integrated copy of reporter with I-SceI target sites. These sites were cleaved upon transfection of an I-SceI expression vector. Cells were transfected with miR223 3p mimic using RNAiMAX. […] After 72 hours, EJ2 cells were trypsinized, washed with PBS and GFP-positive cells were measured using FACSort (Becton-Dickinson, San Jose, Calif.). […]

PARP1 3′ UTR mRNA = test: Luciferase assay for stability of PARP1 3′ UTR mRNA in A549 cells; conditions: normalized against Renilla luciferase
Protocol: (§4) A549 cells were transfected with miR-223-3p mimic using RNAiMAX as above. After 6 hours, these cells were transfected with PARP 3′UTR plasmid fused with dual luciferase reporter from GeneCopoeia using Lipofectamine 2000. 48 hours post-transfection, cells were collected and assessed for luciferase activity using Luc-Pair Dual Luciferase assay kit from GeneCopoeia. The firefly luciferase activity is normalized against Renilla luciferase, which serves as a transfection control.
as §4, with “Luciferase assay for assessing stability of PARP1 3′ UTR mRNA. A549” for “A549”, “miR223-3p” for “miR-223-3p”

[5] = tested on: MDA-MB-436 BRCA mutant cells; test: Active replication forks analysis (BrdU foci), MDA-MB-436; conditions: 72 hours after miRNA transfection, BrdU 30 minutes
Protocol: Active Replication Forks Analysis. Active Replication forks after miR223-3p mimic transfection were measured using immunofluorescent detection of BrdU foci after DNA denaturation. Briefly, 72 hours after transfection, cells were released into fresh media containing 10 uM BrdU (BD Biosciences, Franklin Lakes, N.J.) for 30 min. After washing, cells on coverslip were fixed and the DNA denatured using hydrochloric acid for BrdU immunostaining. The coverslips were processed for immunostaining using BrdU-specific antibody (Cell Signaling, Danvers, Mass.) and then incubated with a secondary antibody conjugated with Alexa Fluor dye from Invitrogen for 1 h. Cells were analyzed as above using the laser scanning confocal microscope. At least five hundred cells were counted for each condition from at least six distinct slides per condition for statistical analysis.

[6] = tested on: other DNA repair components as well as PARP1; test: Western blot of DNA repair components after miR223-3p mimic; conditions: MDA MB 436, HCC1937 and H2452 cells, 48 hours after transfection, vs scr control
Protocol: as §3

`Nc1ccn([C@@H]2O[C@H](CO)[C@@H](O)[C@@H]2O)c(=O)n1` [Ara-C, cytarabine] was tested, and the “levels of endogenous miR-223-3p (qRT-PCR)” value [1] was “gradual decrease”.
With `O=C(c1cc(Cc2n[nH]c(=O)c3ccccc23)ccc1F)N1CCN(C(=O)C2CC2)CC1` [Olaparib, olaparib] the “cells killed (colony formation)” value [2] was 80-90%.
For “miR-223-3p: mirVana miR-223 3p mimic from Ambion life technologies (Cat #4464067); miR-223-3p is SEQ ID NO: 75; transfected with RNAiMAX (UGUCAGUUUGUCAAAUACCCCA; listed as RNA, chemistry not given here) [mirVana miR-223 3p mimic from Ambion life technologies (Cat #4464067); transfected with RNAiMAX]”, the number of colonies [3] was “decreased number of colonies”, the number of colonies [4] was “decreased number of colonies” and the “PARP1 knockdown (Western)” value (PARP1; BAP1 mutant mesothelioma) was “knockdown of PARP1”. For the same compound, the “PARP1 knockdown (Western)” value (PARP1; EJ2-GFP cell reporter system) was “knockdown of PARP1”, the “PARP1 protein expression (Western)” value (PARP1) was “represses PARP1 protein expression” and the “PARP1 protein expression (Western)” value (PARP1; listed as mir223 mimic) was “knockdown of PARP1”. The “PARP1 repression/knockdown (Western)” value (PARP1) was “Knockdown of PARP1”, the “PARP1 repression/knockdown (Western)” value (PARP1; listed as miR223 mimic) was “repression of PARP1” and the “fraction of EJ2 cells with productive aNHEJ (GFP positive cells)” value (aNHEJ) was “decreased”. For the same compound, the “Luciferase expression (PARP1 3′ UTR linked to Firefly Luciferase)” value (PARP1 3′ UTR mRNA) was “decreased”, the “Luciferase expression (PARP1 3′ UTR linked to Firefly Luciferase)” value (PARP1 3′ UTR mRNA; listed as miR223-3p mimic) was “inhibition of PARP1” and the “active replication forks (BrdU)” value [5] was “decreases active replication forks”. For the same compound, the “depletion of DNA repair components (Western)” value [6] was “depletes other DNA repair components as well as PARP1”.
